Experimental data taken from US20190047966A1, “NOVEL COMPOUND AND PHARMACOLOGICALLY ACCEPTABLE SALT THEREOF” (MEIJI SEIKA PHARMA CO., LTD., priority 2016, published 2019).
pKi: −log10 of the molar value. Where a name gives a salt, the structure may show the parent alone.

Columns and labels:
[1] = biological target: human histamine H1 receptor (Homo sapiens, UniProt P35367); assay: Evaluation of Human H1 Receptor Affinity ([3H]pyrilamine binding); design: purchased PerkinElmer Inc; host or cells: CHO-K1; details: inhibition constant Ki, CHO-K1 membrane preparation
Sequence of human histamine H1 receptor (P35367 whole entry): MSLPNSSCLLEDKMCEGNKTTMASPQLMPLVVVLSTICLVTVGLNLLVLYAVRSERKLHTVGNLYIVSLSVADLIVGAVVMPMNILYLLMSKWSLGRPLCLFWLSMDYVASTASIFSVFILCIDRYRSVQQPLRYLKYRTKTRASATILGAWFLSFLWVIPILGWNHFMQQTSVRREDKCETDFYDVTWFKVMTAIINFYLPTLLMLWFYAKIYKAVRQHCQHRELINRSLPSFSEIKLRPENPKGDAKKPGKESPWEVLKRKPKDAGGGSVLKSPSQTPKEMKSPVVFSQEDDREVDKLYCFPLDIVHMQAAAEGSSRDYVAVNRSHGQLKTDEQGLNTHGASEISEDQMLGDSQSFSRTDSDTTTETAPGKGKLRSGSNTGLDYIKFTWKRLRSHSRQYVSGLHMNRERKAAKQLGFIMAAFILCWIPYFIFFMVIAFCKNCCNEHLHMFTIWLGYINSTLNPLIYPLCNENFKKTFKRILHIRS
Method in brief: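 Ki values are Cheng-Prusoff conversions of IC50 (Kd 1.1 nM) from radioligand displacement of 1.2 nM [3H]pyrilamine, with 1.0 μM pyrilamine defining nonspecific binding.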

[2] = biological target: T1, human histamine H4 receptor (Homo sapiens, UniProt Q9H3N8); assay: Evaluation of Human H4 Receptor Affinity ([3H]histamine binding); details: inhibition constant Ki, CHO-K1 membrane preparation, read-out: Evaluation of H4 Receptor Affinity
T1 construct: purchased PerkinElmer Inc; host or cells: CHO-K1
Method in brief: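 Radioligand displacement: compound competes with 8.2 nM [3H]histamine at recombinant human H4 receptor in CHO-K1 membranes (Tris-HCl 50 mM pH 7.4, EDTA 1.25 mM; 25 °C, 90 min), with filter-bound radioactivity counted. IC50 was converted to Ki via Cheng-Prusoff (Kd 5.7 nM); 1.0 μM histamine set nonspecific binding.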

Row | pKi [1] | pKi [2] | SMILES
1 | > 7.00 | 6.30 to 7.00 | NC(=O)COCCOCCN1CCN(c2nc(N)nc3c2CCc2cc(OCc4ccccc4)ccc2-3)CC1 [Example 109, 2-(2-(2-(4-(2-amino-8-(benzyloxy)-5,6-dihydrobenzo[h]quinazolin-4-yl)piperazin-1-yl)ethoxy)ethoxy)acetamide]
2 | > 7.00 | > 7.00 | CS(=O)(=O)NCCOCCOCCN1CCN(c2nc(N)nc3c2CCc2cc(OCc4ccccc4)ccc2-3)CC1 [Example 110, N-(2-(2-(2-(4-(2-amino-8-(benzyloxy)-5,6-dihydrobenzo[h]quinazolin-4-yl)piperazin-1-yl)ethoxy)ethoxy)ethyl)methanesulfonamide dihydrochloride]
3 | > 7.00 | 6.30 to 7.00 | Nc1nc2c(c(N3CCN(CCOCCOCCN4C(=O)c5ccccc5C4=O)CC3)n1)CCc1cc(OCc3ccc(Cl)cc3)ccc1-2 [Example 112, 2-(2-(2-(2-(4-(2-amino-8-((4-chlorobenzyl)oxy)-5,6-dihydrobenzo[h]quinazolin-4-yl)piperazin-1-yl)ethoxy)ethoxy)ethyl)isoindoline-1,3-dione]
4 | > 7.00 | > 7.00 | COC(=O)COCCN1CCN(c2nc(N)nc3c2CCc2cc(OCc4ccc(Cl)cc4)ccc2-3)CC1 [Example 113, methyl 2-(2-(4-(2-amino-8-((4-chlorobenzyl)oxy)-5,6-dihydrobenzo[h]quinazolin-4-yl)piperazin-1-yl)ethoxy)acetate]
5 | > 7.00 | 6.30 to 7.00 | CCS(=O)(=O)CCCN1CCN(c2nc(N)nc3c2CCc2cc(OCc4ccc(Cl)cc4)ccc2-3)CC1 [Example 114, 8-((4-chlorobenzyl)oxy)-4-(4-(3-(ethylsulfonyl)propyl)piperazin-1-yl)-5,6-dihydrobenzo[h]quinazolin-2-amine]
6 | > 7.00 | 6.30 to 7.00 | Nc1nc2c(c(N3CCN(CCOCCOc4nnn[nH]4)CC3)n1)CCc1cc(OCc3ccc(Cl)cc3)ccc1-2 [Example 115, 4-(4-(2-(2-((tetrazol-5-yl)oxy)ethoxy)ethyl)piperazin-1-yl)-8-((4-chlorobenzyl)oxy)-5,6-dihydrobenzo[h]quinazolin-2-amine dihydrochloride]
7 | > 7.00 | 6.30 to 7.00 | Nc1nc2c(c(N3CCN(CCOCc4cc(OCc5ccccc5)no4)CC3)n1)CCc1cc(OCc3ccc(Cl)cc3)ccc1-2 [Example 116, 4-(4-(2-((3-(benzyloxy)isoxazol-5-yl)methoxy)ethyl)piperazin-1-yl)-8-((4-chlorobenzyl)oxy)-5,6-dihydrobenzo[h]quinazolin-2-amine]
8 | 6.30 to 7.00 | > 7.00 | COC(=O)C1CN(C(=O)CCCN2CCN(c3nc(N)nc4c3CCc3cc(OCc5ccc(Cl)cc5)ccc3-4)CC2)C1 [Example 117, methyl 1-(4-(4-(2-amino-8-((4-chlorobenzyl)oxy)-5,6-dihydrobenzo[h]quinazolin-4-yl)piperazin-1-yl)butanoyl)azetidine-3-carboxylate]
9 | > 7.00 | > 7.00 | NCCOCCOCCN1CCN(c2nc(N)nc3c2CCc2cc(OCc4ccc(Cl)cc4)ccc2-3)CC1 [Example 118, 4-(4-(2-(2-(2-aminoethoxy)ethoxy)ethyl)piperazin-1-yl)-8-((4-chlorobenzyl)oxy)-5,6-dihydrobenzo[h]quinazolin-2-amine]
10 | > 7.00 | 6.30 to 7.00 | Nc1nc2c(c(N3CCN(CCOCCOCC(=O)O)CC3)n1)CCc1cc(OCc3ccccc3)ccc1-2 [Example 119, 2-(2-(2-(4-(2-amino-8-(benzyloxy)-5,6-dihydrobenzo[h]quinazolin-4-yl)piperazin-1-yl)ethoxy)ethoxy)acetic acid bis(trifluoroacetate)]
11 | > 7.00 | > 7.00 | Nc1nc2c(c(N3CCN(CCCCCOCC(=O)O)CC3)n1)CCc1cc(OCc3ccccc3)ccc1-2 [Example 120, 2-((5-(4-(2-amino-8-(benzyloxy)-5,6-dihydrobenzo[h]quinazolin-4-yl)piperazin-1-yl)pentyl)oxy)acetic acid]
